In patent US11512053B2, “Arginine methyltransferase inhibitors and uses thereof” (priority 2013, dated 2022) one finds IC50 data, which are given here for 21 molecules.

For orientation: IC50 means the concentration at which inhibition is half-maximal.

The first assay deals with T1, human CARM1 (PRMT4) (Flag- and His-tagged) (Homo sapiens, UniProt Q86X55).
T1 construct: Flag-CARM1-His; made in house; host or cells: HEK 293F cells (BacMam baculovirus)
T1 sequence (Q86X55 1-585 isoform Q86X55-1): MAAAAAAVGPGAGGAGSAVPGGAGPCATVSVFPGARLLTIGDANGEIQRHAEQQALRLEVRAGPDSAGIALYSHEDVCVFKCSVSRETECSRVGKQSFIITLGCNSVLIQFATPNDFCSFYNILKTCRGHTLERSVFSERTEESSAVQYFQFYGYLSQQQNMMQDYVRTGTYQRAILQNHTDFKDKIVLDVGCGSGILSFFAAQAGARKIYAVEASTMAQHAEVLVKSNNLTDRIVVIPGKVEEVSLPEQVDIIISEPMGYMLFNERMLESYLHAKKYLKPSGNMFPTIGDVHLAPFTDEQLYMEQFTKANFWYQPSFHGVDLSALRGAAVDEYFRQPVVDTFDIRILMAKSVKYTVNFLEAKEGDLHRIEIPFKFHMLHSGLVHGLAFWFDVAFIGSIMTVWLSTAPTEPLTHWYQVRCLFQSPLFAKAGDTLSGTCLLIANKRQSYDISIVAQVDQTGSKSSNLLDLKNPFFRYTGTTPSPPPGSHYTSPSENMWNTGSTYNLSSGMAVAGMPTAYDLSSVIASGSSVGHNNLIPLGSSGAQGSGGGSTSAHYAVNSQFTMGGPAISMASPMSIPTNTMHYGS
The assay is described as follows: CARM1 Biochemical Assay (3H-SAM Flashplate, peptide substrate).
Settings: not given
From the text: General Materials. S-adenosylmethionine (SAM), S-adenosylhomocysteine (SAH), bicine, Tween20, dimethylsulfoxide (DMSO), bovine skin gelatin (BSG), sodium butyrate and Tris(2-carboxyethyl)phosphine hydrochloride solution (TCEP) were purchased from Sigma-Aldrich at the highest level of purity possible. ^3H-SAM was purchase from American Radiolabeled Chemicals with a specific activity of 80 Ci/mmol. 384-well streptavidin Flashplates were purchased from PerkinElmer.
Substrates. Peptide representative of human histone H3 residues 16-30 was synthesized with an N-terminal linker-affinity tag motif and a C-terminal amide cap by 21st Century Biochemicals. The peptide was purified by high-performance liquid chromatography (HPLC) to greater than 95% purity and confirmed by liquid chromatography mass spectrometry (LC-MS). The sequence was Biot-Ahx-[…]-amide and contained a monomethylated arginine at position 26 (SEQ ID NO.:14).
Molecular Biology: Human CARM1 (PRMT4) (NM_199141.1) transcript clone was amplified from an HEK 293 cDNA library, incorporating a flanking 5′ sequence encoding a FLAG tag ([…]) (SEQ ID NO.:6) fused directly to Ala 2 of CARM1 and 3′ sequence encoding a hexa His sequence ([…]) (SEQ ID NO.:15) fused directly to Ser 608. The gene sequence encoding isoform1 containing a deletion of amino acids 539-561 was amplified subsequently and subcloned into pFastBacMam (Viva Biotech).
Protein Expression. Recombinant baculovirus were generated according to Bac-to-Bac kit instructions (Life Technologies). […] Infections were carried out at 37° C. for 48 hours, harvested by centrifugation, and stored at −80° C. for purification.
Protein Purification. […] Column was washed with 500 mM NaCl in buffer A and Flag-CARM1-His was eluted with 200 ug/ml FLAG peptide in buffer A. Pooled fractions were dialyzed in 20 mM Tris, 150 mM NaCl, 5% glycerol and 1 mM DTT, pH 7.8. The purity of recovered protein was 94.
General Procedure for CARM1 Enzyme Assays on Peptide Substrates. The assays were all performed in a buffer consisting of 20 mM Bicine (pH=7.6), 1 mM TCEP, 0.005% BSG, and 0.002% Tween 20, prepared on the day of use. Compounds in 100% DMSO (1 ul) were spotted into a polypropylene 384-well V-bottom plates (Greiner) using a Platemate Plus outfitted with a 384-channel head (Thermo Scientific). DMSO (1 ul) was added to Columns 11, 12, 23, 24, rows A-H for the maximum signal control and 1 ul of SAH, a known product and inhibitor of CARM1, was added to columns 11, 12, 23, 24, rows I-P for the minimum signal control. A cocktail (40 ul) containing the CARM1 enzyme was added by Multidrop Combi (Thermo-Fisher). The compounds were allowed to incubate with CARM1 for 30 min at room temperature, then a cocktail (10 ul) containing ^3H-SAM and peptide was added to initiate the reaction (final volume=51 ul). The final concentrations of the components were as follows: CARM1 was 0.25 nM, ^3H-SAM was 30 nM, peptide was 250 nM, SAH in the minimum signal control wells was 1 mM, and the DMSO concentration was 2%. The assays were stopped by the addition of non-radiolabeled SAM (10 ul) to a final concentration of 300 uM, which dilutes the ^3H-SAM to a level where its incorporation into the peptide substrate is no longer detectable. 50 ul of the reaction in the 384-well polypropylene plate was then transferred to a 384-well Flashplate and the biotinylated peptides were allowed to bind to the streptavidin surface for at least 1 hour before being washed once with 0.1% Tween20 in a Biotek ELx405 plate washer. The plates were then read in a PerkinElmer TopCount plate reader to measure the quantity of ^3H-labeled peptide bound to the Flashplate surface, measured as disintegrations per minute (dpm) or alternatively, referred to as counts per minute (cpm).
Where dpm=disintegrations per minute, cmpd=signal in assay well, and min and max are the respective minimum and maximum signal controls. […]
In turn, `CN(CCN)Cc1c[nH]nc1C1=CCOCC1` [Compound 10] gave an IC50 greater than 10000 nM.
Consider `CN(CCN)Cc1c[nH]nc1C1CC1` [Compound 12], for which the IC50 was greater than 10000 nM.
On the same count and under the same terms, with `CC(C)c1n[nH]cc1CN(C)CCN` [Compound 21] the figure was greater than 10000 nM.

The same assay, now with this note: single experiment or average of multiple experiments.
In turn, `CNCCN(C)Cc1c[nH]nc1C#Cc1cccc(OC)c1` [Compound 1] displayed an IC50 of 260 nM.
Still for that read-out and setting: with `CN(CCN)Cc1c[nH]nc1/C=C/c1cccc(F)c1` [Compound 20] the figure was 250 nM; with `CN(CCN)Cc1c[nH]nc1CCc1ccc(F)cc1` [Compound 23, N^1-((3-(4-fluorophenethyl)-1H-pyrazol-4-yl)methyl)-N^1-methylethane-1,2-diamine], 2780 nM; with `CN(CCN)Cc1c[nH]nc1/C=C/c1ccc(F)cc1F` [Compound 13], 200 nM.
The same measure, in the same setting: with `CNCCN(C)Cc1c[nH]nc1/C=C/c1ccc(OC)cc1` [Compound 7] the figure was 90 nM; with `CNCCN(C)Cc1c[nH]nc1C#Cc1ccc(F)cc1` [Compound 4], 500 nM; with `COC/C=C/c1n[nH]cc1CN(C)CCN` [Compound 19], 3780 nM.
On to `CN(CCN)Cc1c[nH]nc1/C=C/c1ccc(C(F)(F)F)cc1` [Compound 18], for which the 50% inhibitory concentration (IC50) came out at 100 nM.
The same measure, in the same setting: then `COc1cc(/C=C/c2n[nH]cc2CN(C)CCN)cc(OC)c1` [Compound 11], with 50 nM.
Same read-out and setting: then `CNCCN(C)Cc1c[nH]nc1C#Cc1ccc(C(C)(C)C)cc1` [Compound 2], with 110 nM.
Still for that read-out and setting: then `CNCCN(C)Cc1c[nH]nc1/C=C/c1ccc(C(F)(F)F)cc1` [Compound 6], with 570 nM; and `CN(CCN)Cc1c[nH]nc1C1=CCOCC1` [Compound 10], with greater than 10000 nM.
As for `CN(CCN)Cc1c[nH]nc1C1CCCCC1` [Compound 22], it took 3770 nM to reach half-maximal inhibition (IC50).
The same measure, in the same setting: with `COc1cccc(/C=C/c2n[nH]cc2CN(C)CCN)c1` [Compound 17] the figure was 90 nM; with `CN(CCN)Cc1c[nH]nc1/C=C/c1cccc(C(F)(F)F)c1` [Compound 16], 110 nM; with `CNCCN(C)Cc1c[nH]nc1/C=C/c1ccc(-c2ccccc2)cc1` [Compound 5], 310 nM.
Regarding `CN(CCN)Cc1c[nH]nc1/C=C/c1cc(F)cc(F)c1` [Compound 15], the IC50 came out at 310 nM.
On the same count and under the same terms, then `Cc1ccc(/C=C/c2n[nH]cc2CN(C)CCN)cc1` [Compound 8], with 370 nM.
Still for that read-out and setting: then `CN(CCN)Cc1c[nH]nc1C1CC1` [Compound 12], with greater than 10000 nM; and `CN(CCN)Cc1c[nH]nc1/C=C/c1cc(C(F)(F)F)cc(C(F)(F)F)c1` [Compound 14], with 510 nM.
Same read-out and setting: then `CC(C)c1n[nH]cc1CN(C)CCN` [Compound 21], with greater than 10000 nM.
